{"source": "patent US12240862B2", "about": "“Inhibitors of peptidylarginine deiminases” (Gilead Sciences, Inc., priority 2020, dated 2025)", "data": [{"target": "T1, human PAD4 (Homo sapiens, UniProt Q9UM07)", "T1 construct": "human PAD4 (NM_012387), A2P663, was PCR amplified; His-SUMO (N, cleaved yes); made in house; host or cells: E. coli BL21(DE3)", "T1 sequence (Q9UM07 2-663)": "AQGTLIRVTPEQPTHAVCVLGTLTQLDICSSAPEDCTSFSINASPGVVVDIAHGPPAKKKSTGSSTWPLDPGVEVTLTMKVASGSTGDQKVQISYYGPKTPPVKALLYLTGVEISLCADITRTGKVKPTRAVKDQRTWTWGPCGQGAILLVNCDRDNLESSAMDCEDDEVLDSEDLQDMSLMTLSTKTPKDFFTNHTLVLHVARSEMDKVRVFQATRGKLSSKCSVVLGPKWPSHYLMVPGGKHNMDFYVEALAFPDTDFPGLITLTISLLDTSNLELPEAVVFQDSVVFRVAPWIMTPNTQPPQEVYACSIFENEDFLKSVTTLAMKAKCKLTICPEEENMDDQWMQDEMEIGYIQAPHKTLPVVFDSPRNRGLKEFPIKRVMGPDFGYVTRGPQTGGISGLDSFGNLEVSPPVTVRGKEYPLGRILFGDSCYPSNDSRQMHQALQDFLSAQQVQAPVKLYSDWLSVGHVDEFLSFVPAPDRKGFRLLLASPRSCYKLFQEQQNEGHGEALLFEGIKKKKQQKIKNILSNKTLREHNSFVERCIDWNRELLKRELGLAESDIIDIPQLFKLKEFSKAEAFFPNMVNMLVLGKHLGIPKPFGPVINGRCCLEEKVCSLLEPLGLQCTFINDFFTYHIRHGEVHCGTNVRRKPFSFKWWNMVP", "assay": "In vitro PAD4 BAEE biochemical assay", "details": "human PAD4, BAEE substrate; 5 nM PAD4, 2 mM calcium chloride, 3 mM BAEE; geometric mean of multiple experiments", "outline": "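Tag-free recombinant hPAD4 (5 nM), 2 mM CaCl2, 3 mM BAEE, 50 mM MOPS pH 7.6, 2 mM DTT; 30 min compound preincubation, 2 h reaction, all 25 °C. EDTA quench; ammonia read via o-phthalaldehyde amine coupling, 1 h.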", "units": {"IC50": "nM"}, "values": [{"smiles": "COc1cc(C(=O)N2[C@H]3CCC[C@@H]2[C@H](N)C3)cc2nc(-c3cc4ccc(N(C(F)F)S(C)(=O)=O)nc4n3CC3CC3)c(C)n12", "note": "[Example 332, N-[2-[7-[(1S,5R,6R)-6-amino-8-azabicyclo[3.2.1]octane-8-carbonyl]-5-methoxy-3-methyl-imidazo [1,2-a]pyridin-2-yl]-1-(cyclopropylmethyl)pyrrolo [2,3-b]pyridin-6-yl]-N-(difluoromethyl) methanesulfonamide]", "IC50": 390}, {"smiles": "COc1cc(C(=O)N2C[C@H](N)C[C@@H]2C)cc2nc(-c3cc4ccc(N(C(F)F)S(C)(=O)=O)nc4n3CC3CC3)c(C)n12", "note": "[Example 354, N-[2-[7-[(2S,4R)-4-amino-2-methyl-pyrrolidine-1-carbonyl]-5-methoxy-3-methyl-imidazo[1,2-a]pyridin-2-yl]-1-(cyclopropylmethyl)pyrrolo[2,3-b]pyridin-6-yl]-N-(difluoromethyl) methanesulfonamide]", "IC50": 1890}, {"smiles": "COc1cc(C(=O)N2[C@H]3CC[C@@H]2[C@H](N)C3)cc2nc(-c3cc4ccc(N5CCOc6ccccc6S5(=O)=O)nc4n3CC3CC3)c(C)n12", "note": "[Example 460, [(1~{R},2~{R},4~{S})-2-amino-7-azabicyclo [2.2.1]heptan-7-yl]-[2-[1-(cyclopropylmethyl)-6-(1,1-dioxo-3,4-dihydro-5,1$l^6,2-benzoxathiazepin-2-yl)pyrrolo[2,3-b]pyridin-2-yl]-5-methoxy-3-methylimidazo[1,2-a]pyridin-7-yl]methanone]", "IC50": 99.9}, {"smiles": "COc1cc(C(=O)N2C[C@H](N)CCN2C)cc2nc(-c3cc4ccc([C@@H](C)NC(=O)c5ccccc5)nc4n3CC3CC3)c(C)n12", "note": "[Example 614, N—((R)-1-(2-(7-((R)-5-amino-2-methylhexahydropyridazine-1-carbonyl)-5-methoxy-3-methylimidazo[1,2-a]pyridin-2-yl)-1-(cyclopropylmethyl)-1H-pyrrolo[2,3-b]pyridin-6-yl)ethyl)benzamide]", "IC50": 90.2}, {"smiles": "CC[C@H]1CCCS(=O)(=O)N1c1ccc2cc(-c3nc4cc(C(=O)N5[C@H]6CC[C@@H]5[C@H](N)C6)cc(OC)n4c3C)n(CC3CC3)c2n1", "note": "[Example 446, [(1~{R},2~{R},4~{S})-2-amino-7-azabicyclo [2.2.1]heptan-7-yl]-[2-[1-(cyclopropylmethyl)-6-[(3~{S})-3-ethyl-1,1-dioxothiazinan-2-yl]pyrrolo[2,3-b]pyridin-2-yl]-5-methoxy-3-methylimidazo[1,2-a]pyridin-7-yl]methanone]", "IC50": 73.3}, {"smiles": "COc1cc(C(=O)N2[C@H]3CC[C@@H]2[C@H](N)C3)cc2nc(-c3cc4ccc([C@@H](C)N5CCNC5=O)nc4n3CC3CC3)c(C)n12", "note": "[Example 273, 1-[(1~{R})-1-[2-[7-[(1~{R},2~{R},4~{S})-2-amino-7-azabicyclo[2.2.1]heptane-7-carbonyl]-5-methoxy-3-methylimidazo [1,2-a]pyridin-2-yl]-1-(cyclopropylmethyl)pyrrolo [2,3-b]pyridin-6-yl]ethyl] imidazolidin-2-one]", "IC50": 83.1}, {"smiles": "COc1cc(C(=O)N2CCC[C@@H](N)C2)cc2nc(-c3cc4ccc(OCC(=O)N(C)C)nc4n3CC3CC3)c(C)n12", "note": "[Example 620, 2-[2-[7-[(3~{R})-3-aminopiperidine-1-carbonyl]-5-methoxy-3-methylimidazo[1,2-a]pyridin-2-yl]-1-(cyclopropylmethyl)pyrrolo[2,3-b]pyridin-6-yl] oxy-~{N},~{N}-dimethylacetamide]", "IC50": 1190}, {"smiles": "COc1cc(C(=O)N2CC[C@H]3CCN[C@H]3C2)cc2nc(-c3cc4ccc(N(C(F)F)S(C)(=O)=O)nc4n3CC3CC3)c(C)n12", "note": "[Example 420, ~{N}-[2-[7-[(3~{a}~{R},7~{a}~{R})-1,2,3,3~{a},4,5,7,7~{a}-octahydropyrrolo[2,3-c]pyridine-6-carbonyl]-5-methoxy-3-methylimidazo [1,2-a]pyridin-2-yl]-1-(cyclopropylmethyl)pyrrolo [2,3-b]pyridin-6-yl]-~{N}-(difluoromethyl) methanesulfonamide]", "IC50": 60.6}]}]}
